Source: ChEMBL document CHEMBL1201862, “PubChem BioAssay data set” (2004)
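Method: 48-hour compound exposure of cells in 96-well plates, five concentrations, linear interpolation of endpoints. Abbreviation: GI50, concentration required for 50% inhibition of growth.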 Active and inactive are the calls of the source. Cut-off read from the data, not from the text of the source: active = GI50 up to about 1.1 µM and inactive = higher.

Columns and labels:
Test in all cases: NCI anticancer screen, dose series, 48 h
EKVX = test system: EKVX
U-251 = test system: U-251
HCT-15 = test system: HCT-15
SW-620 = test system: SW-620
Malme-3M = test system: Malme-3M
COLO 205 = test system: COLO 205
SF-539 = test system: SF-539
SNB-78 = test system: SNB-78
NCI-H460 = test system: NCI-H460
LOX IMVI = test system: LOX IMVI
SN12C = test system: SN12C
KM12 = test system: KM12
KM-20L2 = test system: KM-20L2
OVCAR-8 = test system: OVCAR-8
CCRF-CEM = test system: CCRF-CEM
PC-3 = test system: PC-3
MDA-MB-231 = test system: MDA-MB-231
K562 = test system: K562
MDA-N = test system: MDA-N
MOLT-4 = test system: MOLT-4

Row | Structure (SMILES) | GI50 (EKVX) | GI50 (U-251) | GI50 (HCT-15) | GI50 (SW-620) | GI50 (Malme-3M) | GI50 (COLO 205) | GI50 (SF-539) | GI50 (SNB-78) | GI50 (NCI-H460) | GI50 (LOX IMVI) | GI50 (SN12C) | GI50 (KM12) | GI50 (KM-20L2) | GI50 (OVCAR-8) | GI50 (CCRF-CEM) | GI50 (PC-3) | GI50 (MDA-MB-231) | GI50 (K562) | GI50 (MDA-N) | GI50 (MOLT-4)
1 | Cc1ccc(NC(=O)C(=O)CC(=O)c2ccccc2)cc1C | > 100 µM (inactive) | > 100 µM (inactive) | 37.2 µM | > 100 µM (inactive) | > 100 µM (inactive) | > 100 µM (inactive) | > 100 µM (inactive) | > 100 µM (inactive) | > 100 µM (inactive) | > 100 µM (inactive) | > 100 µM (inactive) | 35.8 µM (inactive) | > 100 µM (inactive) | > 100 µM (inactive) | – | – | – | – | – | –
2 | O=C1CCC(C(=O)O)C2=C1CCCC2 (stereo unspecified) | > 100 µM (inactive) | > 15.7 µM (inactive) | > 100 µM | > 100 µM (inactive) | > 100 µM (inactive) | > 100 µM (inactive) | – | > 100 µM (inactive) | – | > 100 µM (inactive) | > 100 µM (inactive) | > 35.6 µM (inactive) | – | > 100 µM (inactive) | > 100 µM (inactive) | > 100 µM (inactive) | > 100 µM (inactive) | > 100 µM (inactive) | > 100 µM (inactive) | > 100 µM (inactive)
3 | COc1ccc(-c2cc(=O)c3cc(O)ccc3o2)c(OC)c1OC | 12.2 µM (inactive) | – | 31.8 µM | 40.8 µM (inactive) | 66.5 µM (inactive) | 75.2 µM (inactive) | 68.5 µM (inactive) | – | – | 21.7 µM (inactive) | 32.6 µM (inactive) | 28.2 µM (inactive) | 19.3 µM (inactive) | – | 4.73 µM (inactive) | – | – | 24.8 µM (inactive) | – | –
4 | c1cc2ccc1C1NCCCN1CCN1CCCNC1c1ccc(cc1)C1NCCCN1CCN1CCCNC21 (stereo unspecified) | > 100 µM (inactive) | 54.2 µM (inactive) | 61.8 µM | 18.5 µM (inactive) | 44.4 µM (inactive) | 54.3 µM (inactive) | > 100 µM (inactive) | – | 77.3 µM (inactive) | 92.3 µM (inactive) | > 100 µM (inactive) | > 100 µM (inactive) | > 100 µM (inactive) | > 100 µM (inactive) | 41.8 µM (inactive) | – | – | 37 µM (inactive) | – | > 100 µM (inactive)
5 | CC(C)c1cc(C(C)C)c(S(=O)(=O)N=[N+]=[N-])c(C(C)C)c1 | – | 44 µM (inactive) | > 100 µM | > 100 µM (inactive) | > 100 µM (inactive) | > 100 µM (inactive) | > 100 µM (inactive) | – | > 100 µM (inactive) | 47 µM (inactive) | > 100 µM (inactive) | > 100 µM (inactive) | > 100 µM (inactive) | > 100 µM (inactive) | 34.9 µM (inactive) | – | – | 87.5 µM (inactive) | – | 21.3 µM (inactive)
6 | COc1cc(C(=O)C(CO)Oc2ccccc2OC)ccc1O (stereo unspecified) | > 100 µM (inactive) | > 100 µM (inactive) | > 100 µM | > 100 µM (inactive) | > 100 µM (inactive) | > 100 µM (inactive) | > 100 µM (inactive) | > 100 µM (inactive) | > 100 µM (inactive) | – | > 100 µM (inactive) | > 100 µM (inactive) | > 100 µM (inactive) | > 100 µM (inactive) | > 100 µM (inactive) | – | – | 42.1 µM (inactive) | – | > 100 µM (inactive)
7 | Cc1ccccc1-n1c(N)c(-c2nc3ccccc3[nH]2)sc1=S | 53.5 µM (inactive) | > 10 µM (inactive) | 34.7 µM | 31.1 µM (inactive) | 21.5 µM (inactive) | 22.6 µM (inactive) | 24.1 µM (inactive) | 32.4 µM (inactive) | – | 28.1 µM (inactive) | 26.4 µM (inactive) | 20.7 µM (inactive) | – | 32.8 µM (inactive) | 36.5 µM (inactive) | – | – | 36.6 µM (inactive) | – | 27.7 µM (inactive)
8 | CC1=CC(=O)N2C(OC[C@@H]2c2ccccc2)O1 (stereo partly specified) | > 100 µM (inactive) | > 100 µM (inactive) | > 100 µM | > 100 µM (inactive) | > 100 µM (inactive) | > 100 µM (inactive) | > 100 µM (inactive) | – | > 100 µM (inactive) | – | > 100 µM (inactive) | > 100 µM (inactive) | > 100 µM (inactive) | > 100 µM (inactive) | > 100 µM (inactive) | – | – | > 100 µM (inactive) | – | > 100 µM (inactive)
9 | N=C(N)NS(=O)(=O)c1ccc(Nc2c3ccccc3nc3c(C(=O)Nc4ccc(S(N)(=O)=O)cc4)ccc(Cl)c23)cc1 | > 100 µM (inactive) | > 100 µM (inactive) | > 100 µM | > 100 µM (inactive) | > 100 µM (inactive) | > 100 µM (inactive) | > 100 µM (inactive) | 65.5 µM (inactive) | > 100 µM (inactive) | > 100 µM (inactive) | > 100 µM (inactive) | > 100 µM (inactive) | > 100 µM (inactive) | 58.2 µM (inactive) | – | – | – | > 100 µM (inactive) | – | > 100 µM (inactive)
10 | CC1C2C=C(O)C(=O)C(C2=O)C1c1ccccc1 (stereo unspecified) | > 100 µM (inactive) | > 100 µM (inactive) | > 100 µM | > 100 µM (inactive) | > 100 µM (inactive) | > 100 µM (inactive) | > 100 µM (inactive) | 87.5 µM (inactive) | – | > 100 µM (inactive) | – | > 100 µM (inactive) | 38.6 µM (inactive) | > 100 µM (inactive) | > 100 µM (inactive) | – | – | > 100 µM (inactive) | – | > 100 µM (inactive)
11 | C#Cc1c(C)c(/C=C/C(C)=C/C(=O)OC)n(C)c1C | > 100 µM (inactive) | > 100 µM (inactive) | 95.3 µM | > 100 µM (inactive) | > 100 µM (inactive) | > 100 µM (inactive) | > 100 µM (inactive) | > 100 µM (inactive) | – | > 100 µM (inactive) | > 100 µM (inactive) | > 100 µM (inactive) | 87.7 µM (inactive) | 71.9 µM (inactive) | 51.9 µM (inactive) | – | – | 24.2 µM (inactive) | – | 23.4 µM (inactive)
12 | CCOC(=O)c1c(-c2[nH]c(C(=O)OCc3ccccc3)c(C)c2C(=O)OCC)[nH]c(C(=O)OCc2ccccc2)c1C | > 100 µM (inactive) | 36 µM (inactive) | > 100 µM | > 100 µM (inactive) | > 100 µM (inactive) | > 100 µM (inactive) | 48.4 µM (inactive) | 67 µM (inactive) | > 100 µM (inactive) | > 100 µM (inactive) | > 100 µM (inactive) | – | > 100 µM (inactive) | > 100 µM (inactive) | – | – | – | – | – | > 100 µM (inactive)
13 | O=C(NCCCCNc1cccccc1=O)OCc1ccccc1 | > 100 µM (inactive) | > 100 µM (inactive) | > 100 µM | > 100 µM (inactive) | > 100 µM (inactive) | > 100 µM (inactive) | – | > 100 µM (inactive) | > 100 µM (inactive) | > 100 µM (inactive) | > 100 µM (inactive) | > 100 µM (inactive) | > 100 µM (inactive) | 54 µM (inactive) | > 100 µM (inactive) | – | – | > 100 µM (inactive) | – | > 100 µM (inactive)
14 | C=C1C(=O)OC2C1CC[C@H](C)C13OC(=O)CC1[C@@]23C (stereo partly specified) | > 100 µM (inactive) | > 100 µM (inactive) | – | > 100 µM (inactive) | > 100 µM (inactive) | > 100 µM (inactive) | > 100 µM (inactive) | > 100 µM (inactive) | > 100 µM (inactive) | – | > 100 µM (inactive) | > 100 µM (inactive) | – | > 100 µM (inactive) | > 100 µM (inactive) | – | – | > 100 µM (inactive) | – | > 100 µM (inactive)
15 | CCC1C(C)c2c([nH]c3ccccc23)C2C(=O)N(c3ccccc3)C(=O)C21 (stereo unspecified) | 14 µM (inactive) | 14.6 µM (inactive) | 13.6 µM | 16.5 µM (inactive) | 16.6 µM (inactive) | 16.1 µM (inactive) | 18.7 µM (inactive) | 19.2 µM (inactive) | 14.3 µM (inactive) | 15.7 µM (inactive) | 13.5 µM (inactive) | 15 µM (inactive) | – | 14.5 µM (inactive) | 18 µM (inactive) | – | – | 12.6 µM (inactive) | – | 9.31 µM (inactive)
16 | O=C1N/C(=N/N=C/C(O)C(O)C(O)C(O)CO)N/C1=C\c1ccco1 (stereo unspecified) | > 100 µM (inactive) | 89.7 µM (inactive) | > 100 µM | > 100 µM (inactive) | > 100 µM (inactive) | > 100 µM (inactive) | > 100 µM (inactive) | – | > 100 µM (inactive) | > 100 µM (inactive) | > 100 µM (inactive) | > 100 µM (inactive) | – | > 100 µM (inactive) | 48.4 µM (inactive) | 32.3 µM (inactive) | > 100 µM (inactive) | > 100 µM (inactive) | > 100 µM (inactive) | > 100 µM (inactive)
17 | CC(C)(C)N1C=[N+](C(C)(C)C)CC1 | > 100 µM (inactive) | > 100 µM (inactive) | > 100 µM | > 100 µM (inactive) | > 100 µM (inactive) | > 100 µM (inactive) | > 100 µM (inactive) | – | > 100 µM (inactive) | > 100 µM (inactive) | > 100 µM (inactive) | > 100 µM (inactive) | – | > 100 µM (inactive) | > 100 µM (inactive) | > 100 µM (inactive) | > 100 µM (inactive) | > 100 µM (inactive) | > 100 µM (inactive) | > 100 µM (inactive)
18 | C=C1C(=O)OC2C1C(OC(=O)/C(C)=C/C)CC1(C)C(=O)CCC(=C)C21 (stereo unspecified) | 16.3 µM (inactive) | 13.1 µM (inactive) | 3.15 µM | 2.93 µM (inactive) | 5.85 µM (inactive) | 5.33 µM (inactive) | 11.3 µM (inactive) | – | 13.3 µM (inactive) | 3.94 µM (inactive) | 2.15 µM (inactive) | 16.4 µM (inactive) | – | 12.1 µM (inactive) | 2.3 µM (inactive) | 11 µM (inactive) | 17.9 µM (inactive) | 3.13 µM (inactive) | 5.07 µM (inactive) | 2.77 µM (inactive)
